Results on four compounds are retold here after patent US11541028B2, “Peptide pharmaceuticals for treatment of NASH and other disorders” (Mederis Diabetes LLC, priority 2018, dated 2023).

One experiment concerns the target T1, human GLP-1 receptor (Homo sapiens, UniProt P43220).
T1 construct: host or cells: CHO cells
As to the kind of experiment: DiscoveRx LeadHunter cellular assay, cAMP stimulation, GLP-1 receptor in CHO cells. The format is cell-based. Conditions: human GLP-1 receptor in CHO cells (DiscoveRx); read-out: EC50 cAMP GLP-1 R.

Another experiment has as its target T2, human glucagon receptor (Homo sapiens, UniProt P47871).
T2 construct: host or cells: CHO cells
The experiment in a line: DiscoveRx LeadHunter cellular assay, cAMP stimulation, glucagon receptor in CHO cells. The format is cell-based.

The subject of a further experiment is DIO C57BL/6J mice. As to the kind of experiment: Activity in diet-induced obese (DIO) mice. The format is in vivo. As to the method: Fifty diet-induced obese (DIO) C57BL/6J male mice (JAX Labs) were received at 6 wks of age. The mice were ear notched for identification and housed individually in positively ventilated polycarbonate cages with HEPA-filtered air at a density of […]. The animal room was lit entirely with artificial fluorescent lighting, with a controlled 12 hr light/dark cycle. The normal temperature and relative humidity ranges in the animal rooms were 22±4° C. and 50±15%, respectively. Filtered tap water, acidified to a pH of 2.8-3.1, and a high-fat diet (Research Diets D12492, 60 kcal %) were provided ad libitum.
Following a 2 week acclimation, the 50 mice were randomized into groups (n=10): Group 1: treated with vehicle; Group 2: low-dose EU-A994; Group 3: high-dose […]; Group 4: low-dose EU-A1024; and Group 5: high-dose EU-A1024. Mice were dosed subcutaneously on days 1 (at 0 and 7 hr), 3, 6, 9, 12, 15, 18, 21 and 24. Body weight and cage-side observations were recorded daily. Food and water intake was recorded weekly. Mice underwent NMR measurements for determination of whole-body fat and lean composition on days 1 (pre-dose) and 26. On day 26, mice were fasted overnight for an oral glucose tolerance test. Next day, the first blood sample was collected via tail nick (t=0). Mice were then administered a bolus of 1.0 g/kg glucose. Blood samples were obtained via tail nick at 0, 15, 30, 60, 90 and 120 min after glucose dosing, and plasma glucose was immediately determined using a glucometer.
Mice were sacrificed on day 28. Terminal blood was processed to serum/plasma, and aliquots were sent for analysis of glucose, insulin and lipid profile. Body composition was determined by NMR.

The test system of another experiment is db/db mice. As to the kind of experiment: Glucose-lowering activity in db/db mice. The format is in vivo. To be noted: for body weight changes versus vehicle / food consumption versus liraglutide: db/db mice; for food consumption versus liraglutide: day 2. As to the method:
The 60 female db/db B6BKS (D) Leprdb/J (strain 000697) mice for this study were about 8-9 weeks old at arrival (Jackson Laboratory, Bar Harbor, Me.). […] One group of 8 female mice served as the vehicle control and received the vehicle, 0.2% BSA in saline, pH 7.4. One additional group of 8 female mice received the positive-control compound, liraglutide, at a dose level of 50 nmoles/kg. The test compounds, vehicle and positive-control compound were subcutaneously injected at a dose volume of 6 mL/kg on day 1 at about 0, 7 and 24 hours.
Clinical observations were conducted at receipt, prior to randomization, and daily from days 1 to 5. Body weights were measured and recorded at receipt, prior to randomization, and daily from days 1 to 5. Food consumption was measured and recorded daily from days 1 to 5. Blood samples for glucose analysis were collected pre-study (day −3) and at 0, 1, 2, 4, 8, 10, 24, 48, 72 and 96 hours following the first dose on day 1. At study termination all animals were euthanized, and the carcasses were discarded without further evaluation.

The next experiment relates to DIO-NASH mice. As to the kind of experiment: Biopsy-proven DIO-NASH mouse model. The format is in vivo. Conditions: for hepatocyte ballooning score (0-2), pre-study to post-study biopsy: animals that initially exhibited ballooning. Here is the method: All mice entering the study were stratified based on liver pre-biopsy at week −3. Only mice with a fibrosis score ≥1 and a steatosis score ≥2 were included in the study. The stratified mice were randomized into treatment groups based on liver collagen type 1 alpha 1 (collal) quantification at week −3.
Body weight was measured daily for the entire study period. Food intake was measured daily for the first 14 days, and then weekly until study end. EchoMRI whole-body scanning was performed in week 11. At study end were measured plasma levels of alanine transaminase (ALT), aspartate transaminase (AST), γ-glutamyltransferase (GGT), triglycerides (TG) and total cholesterol (TC), liver levels of TG, TC, col1α1 and galectin-3, the expression levels of a wide variety of mRNAs in the liver, and the liver weight, and were performed liver biopsy/necropsy to assess steatosis, inflammation, ballooning and fibrosis of the liver.
For blood and plasma assays, blood samples were collected in heparinized tubes and plasma was separated and stored at −80° C. until analysis. ALT, AST, GGT, TG and TC levels were measured using commercial kits (Roche Diagnostics, Germany) and the Cobas™ C-501 autoanalyzer according to the manufacturer's instructions.
For liver tissue assays, the triglycerides and cholesterol content in the liver was measured using the Triglyceride and Cholesterol reagents (Cat. No. 22-045-795 and Cat. No. 22-045-780, respectively, Roche Diagnostics, Germany) and the Cobas™ C-501 autoanalyzer. Homogenized liver tissue was heated to 80-100° C. twice and centrifuged in a microcentrifuge, and the triglycerides and cholesterol content in the resulting supernatant was measured.
The body composition of the mice was assessed by an EchoMRI 3-1 body composition analyzer (EchoMRI, U.S.). Unanesthetised mice were placed in a plastic tube inside the MRI scanner for about 80 seconds. The body composition was expressed as fat tissue mass, fat-free tissue mass (lean tissue mass) and water.
For liver biopsy, mice were anesthetized by inhalation of isoflurane (2-3%). A small abdominal incision was made in the midline, and the left lateral lobe of the liver was exposed. A cone-shaped wedge of liver tissue (about 50 mg) was excised from the distal portion of the lobe and fixated in 10% neutral-buffered formalin (4% formaldehyde) for histology. The cut surface of the liver was instantly electro-coagulated using bipolar coagulation (ERBE VIO 100 electrosurgical unit). After pre-biopsy, the liver was returned to the abdominal cavity, the abdominal wall was sutured, and the skin was closed with staples. For post-operative recovery, the mice were administered carprofen (5 mg/kg) subcutaneously on the day of operation and on days 1 and 2 post-operation.
For histological staining, in brief, slides with paraffin-embedded sections were de-paraffinated in xylene and then rehydrated in a series of graded ethanol. For hematoxylin and eosin (H&E) staining, the slides were incubated in Mayer's Hematoxylin (Dako), washed in tap water, stained in Eosin Y solution (Sigma-Aldrich), hydrated, mounted with Pertex and then allowed to dry before scanning. For picrosirius red (PSR) staining, the slides were incubated in Weigert's iron hematoxylin (Sigma-Aldrich), washed in tap water, stained in picrosirius red (Sigma-Aldrich) and then washed twice in acidified water. Excess water was removed by shaking the slides, and the slides were dehydrated in three changes of 99% ethanol, cleared in xylene, mounted with Pertex and then allowed to dry before scanning.
For collagen type 1 alpha 1 (collal) and galectin-3 (GAL3) immunohistochemical (IHC) staining, after antigen retrieval and blocking of endogenous peroxidase activity, slides were incubated with the primary antibody (Cat. No. 1310-01 from Southern Biotech for col1α1, or Cat. No. 125402 from Biolegend for galectin-3). […]

The mark [1] stands for this setting: days 1 (pre-dose) and 26 (FIG. 11).
Setting [2] is: sc on days 1 (0 and 7 hr), 3, 6, 9, 12, 15, 18, 21 and 24.
[3] abbreviates: 12 weeks QD (SP-1373 5/10 nmole/kg SC; semaglutide 10 nmole/kg SC; elafibranor 78 mole/kg PO).
[4] abbreviates: 12 weeks QD (SP-1373 5/10 nmole/kg SC; semaglutide 10 nmole/kg SC; elafibranor PO).

T1 sequence (P43220 24-463): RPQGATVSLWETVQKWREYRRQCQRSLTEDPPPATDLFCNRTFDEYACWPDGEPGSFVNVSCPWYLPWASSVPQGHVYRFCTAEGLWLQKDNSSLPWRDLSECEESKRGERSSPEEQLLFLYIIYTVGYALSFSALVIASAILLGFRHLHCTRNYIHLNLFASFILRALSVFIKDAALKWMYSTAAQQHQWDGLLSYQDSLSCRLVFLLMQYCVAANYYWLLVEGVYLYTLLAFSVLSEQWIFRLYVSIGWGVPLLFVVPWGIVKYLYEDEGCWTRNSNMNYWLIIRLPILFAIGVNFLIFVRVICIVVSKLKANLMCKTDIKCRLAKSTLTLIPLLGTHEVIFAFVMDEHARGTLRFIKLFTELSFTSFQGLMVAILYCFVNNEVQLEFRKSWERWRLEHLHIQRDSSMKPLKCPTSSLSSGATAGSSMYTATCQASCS
T2 sequence (P47871 26-477): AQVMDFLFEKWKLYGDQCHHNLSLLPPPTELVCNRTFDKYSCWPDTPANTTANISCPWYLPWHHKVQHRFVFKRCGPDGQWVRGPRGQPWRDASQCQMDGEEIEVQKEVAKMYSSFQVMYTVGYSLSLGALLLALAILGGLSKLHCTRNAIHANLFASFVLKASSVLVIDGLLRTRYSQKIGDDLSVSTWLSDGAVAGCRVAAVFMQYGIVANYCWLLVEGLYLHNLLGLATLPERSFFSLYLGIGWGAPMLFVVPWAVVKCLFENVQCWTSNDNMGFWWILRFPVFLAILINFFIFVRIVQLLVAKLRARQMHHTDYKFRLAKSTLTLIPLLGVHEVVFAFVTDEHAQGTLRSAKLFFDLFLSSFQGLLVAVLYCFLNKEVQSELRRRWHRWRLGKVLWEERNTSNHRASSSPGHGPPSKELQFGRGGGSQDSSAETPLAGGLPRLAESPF
Experimental for human GLP-1 receptor: (§1) A further series of cellular assays was carried out with standard cellular assays (DiscoveRx, LeadHunter assays) using readout of cAMP stimulation or arrestin activation. Compounds were weighed precisely in an amount of about 1 mg and shipped to DiscoveRx for dilution and assay.
Experimental for human glucagon receptor: as §1

Turning to `CCCCCCCCCCCCCCO[C@@H]1O[C@H](CO[C@H]2O[C@H](C(=O)NCCCC[C@H](NC(=O)[C@@H](NC(=O)[C@H](Cc3ccccc3)NC(=O)[C@H](CCC(=O)O)NC(=O)[C@@H]3CCCCNC(=O)CC[C@H](NC(=O)[C@H](CC(=O)O)NC(=O)[C@H](CC(C)C)NC(=O)[C@H](Cc4ccc(O)cc4)NC(=O)[C@H](CCCCN)NC(=O)[C@H](CO)NC(=O)[C@H](Cc4ccc(O)cc4)NC(=O)[C@H](CC(=O)O)NC(=O)[C@H](CO)NC(=O)[C@@H](NC(=O)[C@H](Cc4ccccc4)NC(=O)[C@@H](NC(=O)CNC(=O)[C@H](CCC(N)=O)NC(=O)C(C)(C)NC(=O)[C@@H](N)Cc4c[nH]cn4)[C@@H](C)O)[C@@H](C)O)C(=O)N[C@@H](CCC(N)=O)C(=O)N[C@@H](C)C(=O)N[C@@H](C)C(=O)N3)[C@@H](C)CC)C(=O)N[C@@H](Cc3c[nH]c4ccccc34)C(=O)N[C@@H](CC(C)C)C(=O)N[C@@H](CC(C)C)C(=O)N[C@@H](CCC(N)=O)C(=O)N[C@H](C(N)=O)[C@@H](C)O)[C@H](O)[C@H](O)[C@H]2O)[C@@H](O)[C@H](O)[C@H]1O` [EU-A1024], the EC50 – broadly, the midpoint of the concentration-response curve – on human GLP-1 receptor was 0.005 nM. Besides, at human glucagon receptor, a half-maximal effect (EC50) was put at 0.035 nM. For the same compound, in the experiment with DIO C57BL/6J mice (setting [1]), the “fat mass (NMR)” value is on record as “reduced fat mass” and the “lean mass (NMR)” value is recorded as “little effect on lean mass”. For the same compound, in the experiment on DIO C57BL/6J mice (setting [2]), the basal insulin secretion entry is listed as “reduced basal insulin secretion”, the “glucose excursion in the oral glucose tolerance test (OGTT)” value is “reduced glucose excursion” and the glucose-dependent insulin secretion entry is “increased glucose-dependent insulin secretion”. In addition, the weight gain entry in the experiment with DIO C57BL/6J mice (sc on days 1 (0 and 7 hr), 3, 6, 9, 12, 15, 18, 21 and 24 (FIG. 10)) is “reduced weight gain”.

Take `CCCCCCCCCCCCCCCCCCO[C@@H]1O[C@H](CO[C@H]2O[C@H](C(=O)NCCCC[C@H](NC(=O)[C@@H](NC(=O)[C@H](Cc3ccccc3)NC(=O)[C@H](CCC(=O)O)NC(=O)[C@@H]3CCCCNC(=O)CC[C@H](NC(=O)[C@H](CC(=O)O)NC(=O)[C@H](CC(C)C)NC(=O)[C@H](Cc4ccc(O)cc4)NC(=O)[C@H](CCCCN)NC(=O)[C@H](CO)NC(=O)[C@H](Cc4ccc(O)cc4)NC(=O)[C@H](CC(=O)O)NC(=O)[C@H](CO)NC(=O)[C@@H](NC(=O)[C@H](Cc4ccccc4)NC(=O)[C@@H](NC(=O)CNC(=O)[C@H](CCC(N)=O)NC(=O)C(C)(C)NC(=O)[C@@H](N)Cc4c[nH]cn4)[C@@H](C)O)[C@@H](C)O)C(=O)N[C@@H](CCC(N)=O)C(=O)N[C@@H](C)C(=O)N[C@@H](C)C(=O)N3)[C@@H](C)CC)C(=O)N[C@@H](Cc3c[nH]c4ccccc34)C(=O)N[C@@H](CC(C)C)C(=O)N[C@@H](CC(C)C)C(=O)N[C@@H](CCC(N)=O)C(=O)N[C@H](C(N)=O)[C@@H](C)O)[C@H](O)[C@H](O)[C@H]2O)[C@@H](O)[C@H](O)[C@H]1O` [EU-A1026]: the EC50 was found to be 0.034 nM at human GLP-1 receptor and 0.486 nM at human glucagon receptor. For the same compound, the “body weight changes versus vehicle” value is given as “Significant body weight changes versus vehicle” in the experiment with db/db mice (high-dose (300 nmoles/kg) sc at 0, 7 and 24 hours, days 2 and 3); “Significant body weight changes versus vehicle” in the experiment on db/db mice (low-dose (100 nmoles/kg) sc at 0, 7 and 24 hours, days 3 and 4). The “food consumption versus liraglutide” value with db/db mice (high-dose (300 nmoles/kg)) and in the experiment with db/db mice (low-dose (100 nmoles/kg)) was “significantly different from liraglutide” each time. The “db/db Mice-Mean Blood Glucose (mg/dL) 0 hr” value with db/db mice (dose 300 nmole/kg sc, 0 hr) is given as 531 mg/dL. For the same compound, the “db/db Mice-Mean Blood Glucose (mg/dL) 10 hr” value with db/db mice (dose 300 nmole/kg sc, 10 hr) is 399 mg/dL. The “db/db Mice-Mean Blood Glucose (mg/dL) 24 hr” value with db/db mice (dose 300 nmole/kg sc, 24 hr) stood at 438 mg/dL. In addition, the “db/db Mice-Mean Blood Glucose (mg/dL) 48 hr” value with db/db mice (dose 300 nmole/kg sc, 48 hr) is on record as 505 mg/dL.

For the compound `CSc1ccc(C(=O)/C=C/c2cc(C)c(OC(C)(C)C(=O)O)c(C)c2)cc1` [elafibranor], the “liver fibrosis score (0-4), picrosirius red” value in the experiment with DIO-NASH mice (12 weeks QD (SP-1373 5/10 nmole/kg SC; elafibranor PO)) is listed as “reduced liver fibrosis in the majority of animals”. In the experiment on DIO-NASH mice (setting [3]), the “liver triglycerides (TG) level” value is “little or no effect”; the liver weight entry was “increased liver weight”; the “total liver collagen type 1 alpha 1 staining (measure of liver fibrosis)” value was “modest effect”; the “total liver galectin-3 staining (biomarker for liver inflammation and fibrosis)” value is reported as “essentially no effect”. In the experiment on DIO-NASH mice (setting [4]), the body weight entry is listed as “less body weight decrease”; the “liver total cholesterol (TC) level” value is on record as “little or no effect”; the “hepatocyte ballooning score (0-2), pre-study to post-study biopsy” value is reported as “showed no ballooning”.

semaglutide: in the experiment on DIO-NASH mice (setting [4]), the body weight entry is listed as “less body weight decrease” and the “hepatocyte ballooning score (0-2), pre-study to post-study biopsy” value is on record as “showed no ballooning”. For the same compound, the “liver steatosis, histology with hematoxylin and eosin stain” value in the experiment with DIO-NASH mice (semaglutide 10 nmole/kg SC QD 12 weeks) is recorded as “moderate decrease in hepatosteatosis”.
